Measurements taken from patent publication US20140205537A1, “LRRK2 INHIBITORS” (ZENOBIA THERAPEUTICS, INC., priority 2011, published 2014).
One block for each molecule: values may come before it.

Legend:
G2019S LRRK2 = G2019S LRRK2 (Homo sapiens, UniProt Q5S007, G2019S); experiment: G2019S LRRK2 inhibition (Invitrogen SelectScreen / TR-FRET biochemical assay); design: The protein construct used in the assay is GST tagged 969-2527; GST; purchased Invitrogen; details: for IC50: numeric value
Description: IC50s were determined using Invitrogen's SelectScreen® Profiling Service for wild type and LRRK2 G2019S. The test compounds were screened in 1% DMSO (final) in the well.
a) % inhibition is measured at one concentration
b) a 10-point titration is run to ensure the kinase is inhibited within an expected IC50 range
Biochemical Assay Protocol:
Compound potency against wild-type and G2019S LRRK2 is measured via TR-FRET. The IC50, the amount of inhibitor required to inhibitor 50% of the protein under the given assay conditions, is determined by varying the amount of compound (500-0.001 uM) by serial dilution with 12-data points per compound, in duplicate. The substrate (Fluorescein-GAGRLGRDKYKTLRQIRQ) and ATP is fixed at 0.8 uM and 57 uM (KmATP), respectively. All assays are run in Corning low volume […] round bottomed plates. The assay is run in 50 mM Tris-HCl pH8.5, 10 mM MgCl2, 0.01% Brij-35, 1 mM EGTA, 2 mMDTT. The TR-FRET assay is an end-point assay where the reaction with protein, substrate, inhibitor and ATP is incubated for 1 hour at room temperature. The compound is pre-incubated with the protein and substrate prior to initiating the reaction with ATP. Phospho-transfer is detected using a Terbium labeled anti-pLRRKtide that binds to phosphorylated substrate creating FRET transfer when excited at 340 nm. Emissions signals are taken for terbium and FRET induced fluorescein at 495 nm and 520 nm, respectively, using a Biotek Synergy 2 spectrophotometer. The dose response is determined by plotting the emission ratio of 520/495 against the log of the inhibitor concentration. The maximum inhibition and non-inhibition controls is run on all plates. Staurosporine is used as the positive inhibition control and DMSO is used as the negative point control. A 12-point dose curve of Staurosporine is run as a dosing control. The IC50 is determined to be the inhibitor concentration at which 50% inhibition is achieved. The protein construct used in the assay is GST tagged 969-2527. The protein is commercially available from Invitrogen.
Alternatively, compounds of formulas (II), (I), (I-A), (I-B), (I-C), (I-D), (I-D-1), (I-D-2), (I-E), (I-F), (I-G), (I-H), (I-I), (I-I-1), (I-I-2), (I-J), (I-K), (I-L), (I-M), (I-N), (I-Z-1), (I-Z-2), (I-Z-2-a), (I-Z-2-b), (I-Z-2-c), (I-Z-2-d), (I-Z-3-a), (I-Z-3-b), (I-Z-3-c), or (I-Z-3-d) were tested using Invitrogen's SelectScreen® Profiling Service for LRRK2 G2019S.

ABL1 = ABL1 (Homo sapiens, UniProt P00519); experiment: Kinase selectivity panel: ABL1; format: biochemical
AURKA = target: T1, AURKA (Homo sapiens, UniProt O14965); experiment: Kinase selectivity panel: AURKA; format: biochemical
T1 sequence (O14965 1-403): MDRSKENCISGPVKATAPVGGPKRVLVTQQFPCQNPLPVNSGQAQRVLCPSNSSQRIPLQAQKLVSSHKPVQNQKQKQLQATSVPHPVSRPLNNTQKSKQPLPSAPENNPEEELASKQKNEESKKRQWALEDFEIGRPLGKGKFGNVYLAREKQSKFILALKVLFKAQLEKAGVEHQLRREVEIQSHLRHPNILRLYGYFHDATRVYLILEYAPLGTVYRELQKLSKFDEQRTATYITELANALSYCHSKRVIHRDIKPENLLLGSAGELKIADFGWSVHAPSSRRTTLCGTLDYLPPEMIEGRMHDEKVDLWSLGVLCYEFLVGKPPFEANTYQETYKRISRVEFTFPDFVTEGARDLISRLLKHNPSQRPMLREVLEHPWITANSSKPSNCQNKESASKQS

CAMK2D = CAMK2D (Homo sapiens, UniProt Q13557); experiment: Kinase selectivity panel: CAMK2D; format: biochemical
CDK5/p35 = CDK5/p35 (Homo sapiens, UniProt Q00535); experiment: Kinase selectivity panel: CDK5/p35; format: biochemical
CHEK1 = target: T2, CHEK1 (Homo sapiens, UniProt O14757); experiment: Kinase selectivity panel: CHEK1; format: biochemical
T2 sequence (O14757 1-476): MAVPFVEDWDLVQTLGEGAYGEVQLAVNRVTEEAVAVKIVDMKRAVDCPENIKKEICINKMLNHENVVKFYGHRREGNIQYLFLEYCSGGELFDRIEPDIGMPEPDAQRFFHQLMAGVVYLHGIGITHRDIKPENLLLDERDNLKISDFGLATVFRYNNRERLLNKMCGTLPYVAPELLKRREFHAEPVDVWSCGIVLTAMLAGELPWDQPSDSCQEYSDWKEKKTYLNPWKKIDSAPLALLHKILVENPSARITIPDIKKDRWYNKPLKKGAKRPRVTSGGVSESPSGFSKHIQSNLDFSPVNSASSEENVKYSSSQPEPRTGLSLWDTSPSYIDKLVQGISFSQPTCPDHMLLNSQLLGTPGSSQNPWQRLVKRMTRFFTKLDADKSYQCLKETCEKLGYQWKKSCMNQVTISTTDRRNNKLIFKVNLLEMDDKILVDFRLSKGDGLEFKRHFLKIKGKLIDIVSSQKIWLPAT

IRAK4 = target: T3, IRAK4 (Homo sapiens, UniProt Q9NWZ3); experiment: Kinase selectivity panel: IRAK4; format: biochemical
T3 sequence (Q9NWZ3 1-460): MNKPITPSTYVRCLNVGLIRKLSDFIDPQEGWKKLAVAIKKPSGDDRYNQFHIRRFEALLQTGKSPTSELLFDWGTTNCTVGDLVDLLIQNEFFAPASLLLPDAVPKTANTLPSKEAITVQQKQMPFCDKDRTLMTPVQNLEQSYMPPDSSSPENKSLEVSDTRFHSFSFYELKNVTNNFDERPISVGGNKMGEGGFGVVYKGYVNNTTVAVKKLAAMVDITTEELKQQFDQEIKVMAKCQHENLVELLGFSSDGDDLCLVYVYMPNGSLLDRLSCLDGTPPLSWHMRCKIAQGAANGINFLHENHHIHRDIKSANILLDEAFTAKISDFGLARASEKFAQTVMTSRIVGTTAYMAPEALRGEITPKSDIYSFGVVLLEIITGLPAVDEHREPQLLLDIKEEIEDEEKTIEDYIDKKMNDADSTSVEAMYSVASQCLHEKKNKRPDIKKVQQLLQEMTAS

MARK2 = MARK2 (Homo sapiens, UniProt Q7KZI7); experiment: Kinase selectivity panel: MARK2; format: biochemical
Chain of MARK2 (Q7KZI7 whole entry, species assumed): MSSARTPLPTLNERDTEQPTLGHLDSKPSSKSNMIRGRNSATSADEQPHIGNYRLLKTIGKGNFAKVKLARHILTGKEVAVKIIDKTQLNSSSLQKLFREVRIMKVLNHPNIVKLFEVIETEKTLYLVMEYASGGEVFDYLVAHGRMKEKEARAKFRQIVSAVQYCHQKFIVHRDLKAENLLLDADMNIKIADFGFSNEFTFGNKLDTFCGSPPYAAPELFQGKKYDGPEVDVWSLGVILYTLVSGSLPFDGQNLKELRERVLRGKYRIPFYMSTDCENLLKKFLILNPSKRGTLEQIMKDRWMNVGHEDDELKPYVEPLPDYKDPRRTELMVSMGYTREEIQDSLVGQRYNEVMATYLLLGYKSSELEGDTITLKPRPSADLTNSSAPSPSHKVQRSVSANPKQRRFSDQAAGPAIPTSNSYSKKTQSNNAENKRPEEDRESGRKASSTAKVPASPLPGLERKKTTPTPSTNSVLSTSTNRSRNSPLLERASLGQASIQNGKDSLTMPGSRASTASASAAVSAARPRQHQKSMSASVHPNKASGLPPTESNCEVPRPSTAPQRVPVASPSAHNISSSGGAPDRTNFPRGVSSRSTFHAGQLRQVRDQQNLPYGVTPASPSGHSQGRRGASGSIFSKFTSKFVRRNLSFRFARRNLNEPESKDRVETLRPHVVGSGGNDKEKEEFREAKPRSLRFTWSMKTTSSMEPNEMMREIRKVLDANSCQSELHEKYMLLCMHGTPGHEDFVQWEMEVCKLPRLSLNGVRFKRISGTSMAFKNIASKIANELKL

Chain of CDK5/p35 (Q00535 whole entry, species assumed): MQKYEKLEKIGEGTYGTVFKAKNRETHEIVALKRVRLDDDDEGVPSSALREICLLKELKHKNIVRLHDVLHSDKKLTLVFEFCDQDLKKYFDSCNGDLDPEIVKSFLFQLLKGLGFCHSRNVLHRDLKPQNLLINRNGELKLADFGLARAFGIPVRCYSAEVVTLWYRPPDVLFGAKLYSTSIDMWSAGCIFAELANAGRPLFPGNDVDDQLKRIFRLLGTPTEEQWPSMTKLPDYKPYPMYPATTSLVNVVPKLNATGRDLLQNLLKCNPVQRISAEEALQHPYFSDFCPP
Chain of CDK5/p35 (Q15078 whole entry partner, species assumed): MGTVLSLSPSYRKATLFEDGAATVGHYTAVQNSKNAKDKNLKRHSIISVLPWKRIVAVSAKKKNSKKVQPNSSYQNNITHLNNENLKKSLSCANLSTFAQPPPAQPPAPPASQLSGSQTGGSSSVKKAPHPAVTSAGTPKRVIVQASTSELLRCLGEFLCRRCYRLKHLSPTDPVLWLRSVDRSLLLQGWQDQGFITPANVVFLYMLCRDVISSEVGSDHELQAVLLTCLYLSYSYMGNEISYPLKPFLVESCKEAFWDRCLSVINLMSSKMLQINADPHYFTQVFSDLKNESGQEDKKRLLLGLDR
Chain of G2019S LRRK2 (Q5S007 969-2527 G2019S): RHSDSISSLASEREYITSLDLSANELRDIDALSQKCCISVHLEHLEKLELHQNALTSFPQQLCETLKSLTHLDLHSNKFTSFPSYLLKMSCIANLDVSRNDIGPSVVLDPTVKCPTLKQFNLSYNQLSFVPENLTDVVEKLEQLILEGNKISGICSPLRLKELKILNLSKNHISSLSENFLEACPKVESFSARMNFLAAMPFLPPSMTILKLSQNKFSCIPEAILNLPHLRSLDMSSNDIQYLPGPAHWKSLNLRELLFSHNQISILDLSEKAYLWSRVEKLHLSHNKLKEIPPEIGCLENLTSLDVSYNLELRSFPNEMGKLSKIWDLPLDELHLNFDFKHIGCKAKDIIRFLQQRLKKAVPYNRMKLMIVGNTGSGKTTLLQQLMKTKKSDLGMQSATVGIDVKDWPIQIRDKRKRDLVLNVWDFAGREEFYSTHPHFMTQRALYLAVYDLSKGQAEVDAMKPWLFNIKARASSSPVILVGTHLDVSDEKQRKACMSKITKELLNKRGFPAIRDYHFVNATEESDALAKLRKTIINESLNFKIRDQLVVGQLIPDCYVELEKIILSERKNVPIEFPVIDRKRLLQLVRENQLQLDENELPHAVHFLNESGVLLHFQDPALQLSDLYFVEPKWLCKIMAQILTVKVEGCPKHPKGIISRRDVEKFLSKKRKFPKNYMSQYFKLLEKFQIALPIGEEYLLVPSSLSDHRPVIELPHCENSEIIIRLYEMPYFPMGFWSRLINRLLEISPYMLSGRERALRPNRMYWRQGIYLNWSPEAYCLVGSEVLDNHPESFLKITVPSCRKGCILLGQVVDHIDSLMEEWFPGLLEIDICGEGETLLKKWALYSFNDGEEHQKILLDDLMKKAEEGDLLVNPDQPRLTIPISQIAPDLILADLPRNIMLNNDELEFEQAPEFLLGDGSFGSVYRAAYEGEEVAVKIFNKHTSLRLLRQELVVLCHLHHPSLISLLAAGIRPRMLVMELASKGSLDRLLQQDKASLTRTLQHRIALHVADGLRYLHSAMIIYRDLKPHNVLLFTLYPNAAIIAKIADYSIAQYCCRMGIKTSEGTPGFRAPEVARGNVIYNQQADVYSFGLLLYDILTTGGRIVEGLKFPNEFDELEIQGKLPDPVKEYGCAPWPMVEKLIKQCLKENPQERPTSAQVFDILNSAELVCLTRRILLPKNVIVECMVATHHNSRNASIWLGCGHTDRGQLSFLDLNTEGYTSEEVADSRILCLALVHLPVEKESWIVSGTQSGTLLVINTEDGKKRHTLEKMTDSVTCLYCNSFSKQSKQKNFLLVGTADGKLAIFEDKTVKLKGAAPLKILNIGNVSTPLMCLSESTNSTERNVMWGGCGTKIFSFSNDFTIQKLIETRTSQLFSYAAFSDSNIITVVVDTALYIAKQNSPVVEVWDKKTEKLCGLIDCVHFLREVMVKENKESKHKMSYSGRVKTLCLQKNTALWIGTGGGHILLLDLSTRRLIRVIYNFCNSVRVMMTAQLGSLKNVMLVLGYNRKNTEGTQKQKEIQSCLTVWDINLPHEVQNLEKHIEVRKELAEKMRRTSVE
Chain of ABL1 (P00519 whole entry, species assumed): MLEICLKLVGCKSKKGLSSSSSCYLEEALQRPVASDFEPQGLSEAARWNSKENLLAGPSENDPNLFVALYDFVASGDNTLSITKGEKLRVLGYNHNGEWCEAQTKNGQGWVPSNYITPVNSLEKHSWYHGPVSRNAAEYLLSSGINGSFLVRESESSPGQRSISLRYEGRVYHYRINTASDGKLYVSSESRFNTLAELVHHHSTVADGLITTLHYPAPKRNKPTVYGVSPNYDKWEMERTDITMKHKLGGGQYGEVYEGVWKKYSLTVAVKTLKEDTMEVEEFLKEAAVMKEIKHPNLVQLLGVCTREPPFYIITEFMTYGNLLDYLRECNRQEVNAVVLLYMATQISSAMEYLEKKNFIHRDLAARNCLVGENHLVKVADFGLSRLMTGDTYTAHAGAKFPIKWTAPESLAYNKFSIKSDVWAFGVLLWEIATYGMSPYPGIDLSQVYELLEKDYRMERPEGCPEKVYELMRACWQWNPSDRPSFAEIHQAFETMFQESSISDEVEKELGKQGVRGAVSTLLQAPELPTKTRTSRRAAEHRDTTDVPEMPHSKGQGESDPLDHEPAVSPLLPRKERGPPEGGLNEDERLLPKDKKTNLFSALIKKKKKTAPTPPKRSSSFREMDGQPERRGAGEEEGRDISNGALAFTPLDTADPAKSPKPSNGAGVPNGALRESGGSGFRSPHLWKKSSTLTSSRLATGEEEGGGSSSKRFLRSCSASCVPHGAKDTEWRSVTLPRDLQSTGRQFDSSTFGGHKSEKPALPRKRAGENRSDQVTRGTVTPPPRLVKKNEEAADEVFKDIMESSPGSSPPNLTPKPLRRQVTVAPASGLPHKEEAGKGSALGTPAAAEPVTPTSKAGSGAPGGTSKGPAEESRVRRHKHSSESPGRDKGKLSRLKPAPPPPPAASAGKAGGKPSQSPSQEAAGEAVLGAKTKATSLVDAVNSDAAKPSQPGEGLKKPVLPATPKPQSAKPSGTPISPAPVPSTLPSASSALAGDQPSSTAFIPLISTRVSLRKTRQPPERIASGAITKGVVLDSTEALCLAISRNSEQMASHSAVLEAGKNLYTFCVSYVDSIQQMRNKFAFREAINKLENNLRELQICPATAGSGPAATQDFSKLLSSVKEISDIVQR
Chain of CAMK2D (Q13557 whole entry, species assumed): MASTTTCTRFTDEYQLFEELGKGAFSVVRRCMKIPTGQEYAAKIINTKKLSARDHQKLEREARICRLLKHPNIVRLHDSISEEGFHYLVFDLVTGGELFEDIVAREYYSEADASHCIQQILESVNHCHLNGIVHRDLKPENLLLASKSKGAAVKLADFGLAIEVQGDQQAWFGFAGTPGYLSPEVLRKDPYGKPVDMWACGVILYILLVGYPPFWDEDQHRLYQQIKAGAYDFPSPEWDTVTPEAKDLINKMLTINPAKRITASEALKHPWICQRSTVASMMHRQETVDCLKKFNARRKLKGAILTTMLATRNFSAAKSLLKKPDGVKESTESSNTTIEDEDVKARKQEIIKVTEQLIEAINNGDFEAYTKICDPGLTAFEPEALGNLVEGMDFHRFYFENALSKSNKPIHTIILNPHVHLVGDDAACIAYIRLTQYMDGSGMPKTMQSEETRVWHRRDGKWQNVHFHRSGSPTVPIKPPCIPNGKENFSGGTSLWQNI

SMILES: O=C1Nc2ccccc2/C1=C\c1nc2ccccc2o1 [Compound 9, (3E)-3-(1,3-benzoxazol-2-ylmethylene)indolin-2-one]
inhibition at 10 µM (G2019S LRRK2): 11%

SMILES: O=C1Nc2ccccc2/C1=C\c1cnc2ccccc2c1 [Compound 8, (3E)-3-(3-quinolylmethylene)indolin-2-one]
IC50 (G2019S LRRK2): 872 nM

SMILES: Cc1cc(/C=C2\C(=O)Nc3ccccc32)[nH]n1 [Compound 1, (3Z)-3-[(3-methyl-1H-pyrazol-5-yl)methylene]indolin-2-one]
inhibition at 0.1 µM (G2019S LRRK2): 22%

SMILES: Cc1ncc(/C=C2\C(=O)Nc3ccc(OC(F)(F)F)cc32)[nH]1 [Compound 11, (3Z)-3-[(2-methyl-1H-imidazol-5-yl)methylene]-5-(trifluoromethoxy)indolin-2-one]
IC50 (G2019S LRRK2): 41.2 nM

SMILES: O=C1Nc2ccccc2/C1=C\c1nc2ccccc2s1 [Compound 7, (3E)-3-(1,3-benzothiazol-2-ylmethylene)indolin-2-one]
inhibition at 0.1 µM (G2019S LRRK2): -5%

SMILES: Cc1ncc(/C=C2\C(=O)Nc3ccc(S(C)(=O)=O)cc32)[nH]1 [Compound 15, (3Z)-3-[(2-methyl-1H-imidazol-5-yl)methylene]-5-methylsulfonyl-indolin-2-one]
IC50 (G2019S LRRK2): 125 nM

SMILES: COCc1ncc(/C=C2\C(=O)Nc3ccc(OC)cc32)[nH]1 [Compound 17, (3Z)-5-methoxy-3-[[2-(methoxymethyl)-1H-imidazol-5-yl]methylene]indolin-2-one]
IC50 (G2019S LRRK2): 38.7 nM

SMILES: COc1ccc2c(c1)NC(=O)/C2=C\c1cnc(C)[nH]1 [Compound 6, (3Z)-6-methoxy-3-[(2-methyl-1H-imidazol-5-yl)methylene]indolin-2-one]
IC50 (G2019S LRRK2): 127 nM

SMILES: O=C1Nc2ccccc2/C1=C/c1cc2cccnc2[nH]1 [Compound 5, (3Z)-3-(1H-pyrrolo[2,3-b]pyridin-2-ylmethylene)indolin-2-one]
inhibition at 10 µM (G2019S LRRK2): 30%

SMILES: Cc1cnc(/C=C2\C(=O)Nc3ccccc32)[nH]1 [Compound 2, (3Z)-3-[(5-methyl-1H-imidazol-2-yl)methylene]indolin-2-one]
IC50 (G2019S LRRK2): 181 nM

SMILES: COc1ccc2c(c1)/C(=C/c1cnc(C(C)(C)C)[nH]1)C(=O)N2 [Compound 19, (3Z)-3-[(2-tert-butyl-1H-imidazol-5-yl)methylene]-5-methoxy-indolin-2-one]
IC50 (ABL1): > 10000 nM | IC50 (AURKA): > 10000 nM | IC50 (CAMK2D): 1470 nM | IC50 (CDK5/p35): > 10000 nM | IC50 (CHEK1): > 10000 nM | IC50 (IRAK4): > 10000 nM | IC50 (MARK2): > 10000 nM | IC50 (G2019S LRRK2): 43.9 nM

Other lines, results leading:

IC50 (G2019S LRRK2): 3.5 nM
SMILES: CCc1ncc(/C=C2\C(=O)Nc3ccc(OC)cc32)[nH]1 [Compound 16, (3Z)-3-[(2-ethyl-1H-imidazol-5-yl)methylene]-5-methoxy-indolin-2-one]

IC50 (ABL1): > 10000 nM | IC50 (AURKA): 5260 nM | IC50 (CAMK2D): 275 nM | IC50 (CDK5/p35): > 10000 nM | IC50 (CHEK1): > 10000 nM | IC50 (IRAK4): 3440 nM | IC50 (MARK2): 1840 nM | IC50 (G2019S LRRK2): 7.6 nM
SMILES: COc1ccc2c(c1)/C(=C/c1cnc(C(C)C)[nH]1)C(=O)N2 [Compound 12, (3Z)-3-[(2-isopropyl-1H-imidazol-5-yl)methylene]-5-methoxy-indolin-2-one]

IC50 (G2019S LRRK2): 38 nM
SMILES: Cc1ncc(/C=C2\C(=O)Nc3ccc(F)cc32)[nH]1 [Compound 3, (3Z)-5-fluoro-3-[(2-methyl-1H-imidazol-5-yl)methylene]indolin-2-one]

IC50 (ABL1): 860 nM | IC50 (AURKA): 50 nM | IC50 (CAMK2D): 615 nM | IC50 (CDK5/p35): 258 nM | IC50 (CHEK1): 999 nM | IC50 (IRAK4): 655 nM | IC50 (MARK2): 434 nM | IC50 (G2019S LRRK2): 1.2 nM
SMILES: Cc1ncc(/C=C2\C(=O)Nc3ccc(OC(C)C)cc32)[nH]1 [Compound 14, (3Z)-5-isopropoxy-3-[(2-methyl-1H-imidazol-5-yl)methylene]indolin-2-one]

IC50 (G2019S LRRK2): 6.9 nM
SMILES: COc1ccc2c(c1)/C(=C/c1cnc(C)[nH]1)C(=O)N2 [Compound 4, (3Z)-5-methoxy-3-[(2-methyl-1H-imidazol-5-yl)methylene]indolin-2-one]

IC50 (G2019S LRRK2): 3.1 nM
SMILES: CCOc1ccc2c(c1)/C(=C/c1cnc(C)[nH]1)C(=O)N2 [Compound 13, (3Z)-5-ethoxy-3-[(2-methyl-1H-imidazol-5-yl)methylene]indolin-2-one]

IC50 (G2019S LRRK2): 16.4 nM
SMILES: Cc1ncc(/C=C2\C(=O)Nc3ccc(Cl)cc32)[nH]1 [Compound 10, (3Z)-5-chloro-3-[(2-methyl-1H-imidazol-5-yl)methylene]indolin-2-one]
